The values below come from patent publication US6680304B2, “Disaccharides with anti-arthrosic properties” (Bioiberica, S.A., priority 2000, dated 2004).

Counter-ions that a name gives are not always drawn.

The test system of one assay is aggrecan. The experiment in a line: Aggrecan accumulation in cell-associated matrix of IL-1-treated chondrocytes in alginate gel, flow cytometry. The class given is cell-based, human. Conditions: for AGGR (aggrecan): 7 days, average of three measures; for change in accumulation of aggrecan in the CAM: IL-1+ chondrocytes, treated compared to untreated. Here is the method: (§1) Each of the compounds (Ib, IC) has been tested on human articular cartilage chondrocytes obtained from 2 different donors. The chondrocytes were cultured over 7 days in alginate gel and during this period they were exposed to the different drugs. The cells were then isolated from the gel and tested. The test protocol specified that the chondrocytes were exposed to IL-1 since it has been shown that particularly IL-1-treated chondrocytes, as opposed to non-treated chondrocytes, respond to polysulphated polysaccharides. As a positive control, chondroitin sulphate (CS) and chondroitin polysulphate (CPS) have been used.
(§2) The accumulation of aggrecan and of type II collagen in the cell-associated matrix (CAM) of the chondrocytes in culture was the primary variable to evaluate the DMOAD (Disease Modifying Osteoarthritic Drug) effects of the 2 compounds. The intracellular levels of IL-1α and β, MMP-13 were also studied.
(§3) All assays were made by flow cytometry. Specific Fluoresceine Isothiocyanate- (FITC-) or Phycoerythin (PE-) conjugated monoclonal antibodies (Mab) against the different proteins have been used. The results were expressed as Mean Fluorescence Intensity (MFI) of the chondrocyte population after staining with the respective Mab.
On the technique in general: A flow cytometer gives signals particle by particle.

A further assay relates to type II collagen. Nature of the assay: Type II collagen accumulation in cell-associated matrix of IL-1-treated chondrocytes in alginate gel, flow cytometry. The class given is cell-based, human. The conditions noted are these: for COLL (type II collagen): 7 days, average of three measures; for change in accumulation of type II collagen in the CAM: IL-1+ chondrocytes, treated compared to untreated. Here is the method:
as §1, §2, §3

Another assay has as its system IL-1α. Nature of the assay: Intracellular IL-1α level in IL-1-treated chondrocytes, flow cytometry. The class given is cell-based, human. Conditions: for IL-Iα / IL-1α: 7 days, average of three measures; for change in levels of IL-1α: IL-1+ chondrocytes, treated compared to untreated. The method, then:
as §1, §2, §3

The next assay deals with IL-1β. The experiment in a line: Intracellular IL-1β level in IL-1-treated chondrocytes, flow cytometry. The class given is cell-based, human. The conditions noted are these: for IL-1β: 7 days, average of three measures; for change in levels of IL-1β: IL-1+ chondrocytes, treated compared to untreated. Here is the method:
as §1, §2, §3

In a further assay the test system is MMP-13. The experiment in a line: Intracellular MMP-13 level in IL-1-treated chondrocytes, flow cytometry. The class given is cell-based, human. Conditions: for MMP-13: 7 days, average of three measures; for change in levels of MMP-13: IL-1+ chondrocytes, treated compared to untreated. Here is the method:
as §1, §2, §3

The subject of assay [1] is human articular chondrocytes. The experiment in a line: Overall DMOAD (cartilage structure modifying) effect on cultured chondrocytes. The class given is cell-based. The conditions noted are these: effects comparable to those of CS and CPS. Here is the method:
as §1, §2, §3

Setting [2] is: Table 2, donor F53 + IL-1β, 25 μg/ml.
Setting [3] is: Table 1, donor F53 + IL-1β, 10 μ/ml.
Where [4] appears, read: Table 2, donor F53 + IL-1β, 10 μg/ml.
The mark [5] stands for this setting: Table 1, donor F53 + IL-1β, 25 μ/ml.

As to `CO[C@H]1O[C@H](COS(=O)(=O)O)[C@@H](OS(=O)(=O)O)[C@H](O[C@@H]2O[C@H](C(=O)O)[C@@H](O)[C@H](O)[C@H]2O)[C@H]1NC(C)=O` [Ic, Methyl 2-acetamido-2-deoxy-3-O-(β-D-glucopyranosyluronic acid)-4,6-di-O-sulfo-α-D-glucopyranoside, trisodium salt], the “AGGR (aggrecan)” value was found to be 18.42 MFI in the assay on aggrecan (setting [2]) and 59.82 MFI in the assay on aggrecan (donor F73 + IL-1β, 25 μg/ml). Moreover, the “COLL (type II collagen)” value is reported as 0.97 MFI with type II collagen (setting [2]) and 2.45 MFI in the assay on type II collagen (donor F73 + IL-1β, 25 μg/ml). Further, the IL-Iα with IL-1α (setting [2]) turned out to be 44.69 MFI; in the assay on IL-1α (donor F73 + IL-1β, 25 μg/ml), 14.92 MFI. The IL-1β was 3.63 MFI in the assay with IL-1β (setting [2]) and 0.45 MFI in the assay with IL-1β (donor F73 + IL-1β, 25 μg/ml). The MMP-13 in the assay with MMP-13 (setting [2]) was found to be 19.62 MFI; in the assay on MMP-13 (donor F73 + IL-1β, 25 μg/ml), 18.92 MFI. Moreover, the “overall conclusion on effect on cartilage” value in assay [1] was “cartilage structure modifying effects”.

On to chondroitin sulphate [CS], for which, in the assay on aggrecan, the “change in accumulation of aggrecan in the CAM” value is reported as “statistically significant increase”. Also, the “AGGR (aggrecan)” value in the assay on aggrecan (setting [3]) amounted to 15.09 MFI; with aggrecan (setting [4]), 15.09 MFI; with aggrecan (donor F16 + IL-1β, 10 μ/ml) it was 47.39 MFI; in the assay on aggrecan (donor F73 + IL-1β, 10 μg/ml), 28.72 MFI. The “change in accumulation of type II collagen in the CAM” value in the assay with type II collagen is on record as “statistically significant increase”. The “COLL (type II collagen)” value is listed as 1.23 MFI with type II collagen (setting [3]); 1.23 MFI in the assay with type II collagen (setting [4]); 2.97 MFI with type II collagen (donor F16 + IL-1β, 10 μ/ml); 1.45 MFI in the assay with type II collagen (donor F73 + IL-1β, 10 μg/ml). Besides, the “change in levels of IL-1α” value in the assay with IL-1α is given as “statistically significant decrease”. For the same compound, the IL-1α with IL-1α (setting [3]) was determined as 45.41 MFI; with IL-1α (donor F16 + IL-1β, 10 μ/ml), 17.09 MFI. The IL-Iα turned out to be 45.41 MFI with IL-1α (setting [4]) and 17.49 MFI in the assay with IL-1α (donor F73 + IL-1β, 10 μg/ml). Moreover, in the assay on IL-1β, the “change in levels of IL-1β” value is recorded as “statistically significant decrease”. In addition, the IL-1β turned out to be 3.06 MFI with IL-1β (setting [3]); 3.06 MFI in the assay on IL-1β (setting [4]); 1.17 MFI in the assay on IL-1β (donor F16 + IL-1β, 10 μ/ml); 0.47 MFI in the assay with IL-1β (donor F73 + IL-1β, 10 μg/ml). In the assay on MMP-13, the “change in levels of MMP-13” value is on record as “statistically significant decrease”. The MMP-13 in the assay with MMP-13 (setting [3]) is reported as 14.70 MFI; in the assay with MMP-13 (setting [4]), 14.70 MFI; with MMP-13 (donor F16 + IL-1β, 10 μ/ml), 23.34 MFI; in the assay with MMP-13 (donor F73 + IL-1β, 10 μg/ml), 21.12 MFI.

As to `CO[C@H]1O[C@H](COS(=O)(=O)[O-])[C@@H](O)[C@H](O[C@@H]2O[C@H](C(=O)[O-])[C@@H](O)[C@H](O)[C@H]2O)[C@H]1NC(C)=O.[Na+].[Na+]` [Ib, Methyl 2-acetamido-2-deoxy-3-O-(β-D-glucopyranosyluronic acid)-6-O-sulfo-α-D-glucopyranoside, disodium salt], the “AGGR (aggrecan)” value with aggrecan (setting [5]) was 14.41 MFI; in the assay on aggrecan (donor F16 + IL-1β, 25 μ/ml), 48.77 MFI. Also, the “COLL (type II collagen)” value is given as 1.00 MFI with type II collagen (setting [5]) and 2.92 MFI in the assay on type II collagen (donor F16 + IL-1β, 25 μ/ml). In addition, the IL-1α with IL-1α (setting [5]) was determined as 44.24 MFI; in the assay with IL-1α (donor F16 + IL-1β, 25 μ/ml), 19.83 MFI. Also, the IL-1β was determined as 2.92 MFI in the assay on IL-1β (setting [5]) and 1.03 MFI in the assay on IL-1β (donor F16 + IL-1β, 25 μ/ml). Further, the MMP-13 was determined as 17.67 MFI with MMP-13 (setting [5]) and 22.49 MFI in the assay with MMP-13 (donor F16 + IL-1β, 25 μ/ml). Further, the “overall conclusion on effect on cartilage” value in assay [1] is reported as “cartilage structure modifying effects”.

For chondroitin polysulphate [CPS], the “change in accumulation of aggrecan in the CAM” value with aggrecan is on record as “statistically significant increase”. For the same compound, the “AGGR (aggrecan)” value came to 19.47 MFI in the assay with aggrecan (setting [3]); 19.47 MFI with aggrecan (setting [4]); 46.41 MFI in the assay with aggrecan (donor F16 + IL-1β, 10 μ/ml); 24.71 MFI with aggrecan (donor F73 + IL-1β, 10 μg/ml). The “change in accumulation of type II collagen in the CAM” value in the assay with type II collagen is on record as “statistically significant increase”. Also, the “COLL (type II collagen)” value in the assay with type II collagen (setting [3]) came out at 2.12 MFI; in the assay on type II collagen (setting [4]) it was 2.12 MFI; in the assay with type II collagen (donor F16 + IL-1β, 10 μ/ml), 2.31 MFI; in the assay with type II collagen (donor F73 + IL-1β, 10 μg/ml), 1.96 MFI. Moreover, the “change in levels of IL-1α” value in the assay on IL-1α is “statistically significant decrease”. The IL-1α with IL-1α (setting [3]) stood at 43.84 MFI; in the assay on IL-1α (donor F16 + IL-1β, 10 μ/ml) it was 16.94 MFI. Also, the IL-Iα is listed as 43.84 MFI in the assay on IL-1α (setting [4]) and 16.43 MFI with IL-1α (donor F73 + IL-1β, 10 μg/ml). In addition, the “change in levels of IL-1β” value in the assay on IL-1β is “statistically significant decrease”. Further, the IL-1β in the assay with IL-1β (setting [3]) was 2.68 MFI; in the assay on IL-1β (setting [4]), 2.68 MFI; in the assay on IL-1β (donor F16 + IL-1β, 10 μ/ml), 1.18 MFI; in the assay on IL-1β (donor F73 + IL-1β, 10 μg/ml), 0.45 MFI. Besides, the “change in levels of MMP-13” value in the assay on MMP-13 is listed as “statistically significant decrease”. In addition, the MMP-13 with MMP-13 (setting [3]) stood at 11.82 MFI; in the assay on MMP-13 (setting [4]), 11.82 MFI; with MMP-13 (donor F16 + IL-1β, 10 μ/ml), 23.20 MFI; with MMP-13 (donor F73 + IL-1β, 10 μg/ml) it was 22.11 MFI.
